Source: US20150065421A1, “BASAL INSULIN THERAPY” (SANOFI, priority 2012, published 2015)

Experiments:
[1] = cited from earlier work
[2] = tested on: people with IGT, IFG, or early diabetes; assay: Double-blind pilot study HOE901/1021 (safety and feasibility); type: in vivo, human
Excerpt: The use of exogenous insulin in an IGT, IFG, or diabetic population might confer several potential metabolic and cardiovascular benefits: • 1. The fact that it is finely titratable and durable (compared to oral antidiabetic agents) may translate into a powerful effect to delay the exposure of target tissues to toxic levels of glycemia. • 2. Insulin-mediated suppression of circulating free fatty acids (FFA) will: • reduce VLDL synthesis and improve lipoprotein patterns (i.e. lower triglycerides, and increase HDL-C); • reduce lipotoxicity at the level of the beta cell and at insulin's target tissues; • reduce obligatory oxidative metabolism in ischemic myocardium. • 3. Exogenous insulin will prevent metabolic decompensation due to stress, that is either mild and frequent (i.e. daily stresses and minor illness or injury), or severe and less common (i.e. major injury, illness, surgery, vascular events). These stress events would normally suppress endogenous insulin responses even when a pharmacologic secretagogue or sensitizer is present; exogenous, injected insulin cannot be suppressed in such a way. • 4. Nitric oxide-mediated vasodilation and endothelial function are abnormal in those with IFG, IGT, or diabetes. Additionally, markers of endothelial inflammation are increased. These abnormalities are all improved by insulin treatment. […]

## (Gly A21) Arg (B31) Arg (B32) human insulin [insulin glargine]
[1]; in vivo
  mean duration of action: approximately 20 hours
[1]; smooth, without a definite peak
  duration of glucose lowering effect: 24 h
[2]; all episodes
  severity of hypoglycemia episodes: mild
[2]; of 13 insulin glargine subjects, two weeks, calorie-restricted diet, titrated to FPG 80-95 mg/dL
  subjects who experienced hypoglycemia: Two
